Test results as given in patent US5840699A, “Peptide derivatives” (Teikoku Hormone Mfg. Co. Ltd., priority 1995, dated 1998).

Test system: mouse leukemia P388 cells
Assay: Antitumor activity (increase in life-span) in mice transplanted with mouse leukemia P388 cells
Assay type: in vivo
Conditions: relative value of percent increase in life-span (ILS), dolastatin 10 ILS regarded as 1; P388 cells (10^6 per mouse) in abdominal cavity of CDF1 mice; drug intraperitoneally on first and fifth day; observed for 60 days
Experimental: 0.1 ml (10^6 cells per mouse) each of mouse leukemia P388 cells was transplanted into the abdominal cavity of 7-weeks-old CDF1 mice. […] Then, the percent increase in life-span (ILS) was calculated from the results of observation according to the following equation. In the following equation, T designates the median number of days for which the mice of the drug-treated group survived, and C designates the median number of days for which the mice of the control group survived. [formula]
The antitumor activity of each drug is expressed as a relative value based on the antitumor activity of dolastatin 10 for which ILS is regarded as 1.

dolastatin 10
Antitumor activity: 1
